In ChEMBL document CHEMBL1152860, “Synthesis and antiproliferative activity of 3-amino-N-phenyl-1H-indazole-1-carboxamides” (2009):
Calls of active or inactive are those of the source. The calls are words filed in the database; no cut-off is given here.

How the values were obtained:
[1] = tested on: CCRF-CEM; assay: Growth inhibition of human CCRF-CEM cells after 48 hrs by SRB assay; format: functional
[2] = tested on: HOP-62; assay: Growth inhibition of human HOP62 cells after 48 hrs by SRB assay; format: functional; details: HOP-62, 48 h
[3] = tested on: NCI-H23; assay: Growth inhibition of human NCI-H23 cells after 48 hrs by SRB assay; format: functional; details: NCI-H23, 48 h
[4] = tested on: NCI-H460; assay: Growth inhibition of human NCI-H460 cells after 48 hrs by SRB assay; format: functional; details: NCI-H460, 48 h
[5] = tested on: Malme-3M; assay: Growth inhibition of human MALME-3M cells after 48 hrs by SRB assay; format: functional
[6] = tested on: SK-MEL-5; assay: Growth inhibition of human SK-MEL-5 cells after 48 hrs by SRB assay; format: functional; details: SK-MEL-5, 48 h
[7] = tested on: UACC-257; assay: Growth inhibition of human UACC257 cells after 48 hrs by SRB assay; format: functional; details: UACC-257, 48 h
[8] = tested on: OVCAR-4; assay: Growth inhibition of human OVCAR4 cells after 48 hrs by SRB assay; format: functional; details: OVCAR-4, 48 h
[9] = tested on: OVCAR-5; assay: Growth inhibition of human OVCAR5 cells after 48 hrs by SRB assay; format: functional; details: OVCAR-5, 48 h
[10] = tested on: DU-145; assay: Growth inhibition of human DU145 cells after 48 hrs by SRB assay; format: functional; details: DU-145, 48 h
[11] = tested on: MDA-MB-435; assay: Growth inhibition of human MDA-MB-435 cells after 48 hrs by SRB assay; format: functional; details: MDA-MB-435, 48 h
[12] = tested on: K562; assay: Cell cycle arrest in human K562 cells assessed as accumulation at G0/G1 phase at 15.9 uM after 24 hrs using propidium iodide staining by flow cytometry; format: functional, cell-based
[13] = tested on: K562; assay: Cell cycle arrest in human K562 cells assessed as decrease in accumulation at S phase at 15.9 uM after 24 hrs using propidium iodide staining by flow cytometry; format: functional, cell-based
[14] = tested on: K562; assay: Cell cycle arrest in human K562 cells assessed as decrease in accumulation at G2/M phase at 15.9 uM after 24 hrs using propidium iodide staining by flow cytometry; format: functional, cell-based
[15] = tested on: K562; assay: Decrease in total phosphorylated retinoblastoma protein level in human K562 cells at 34 uM after 24 hrs by flow cytometry; format: functional, cell-based
[16] = tested on: SF-295; assay: Growth inhibition of human SF295 cells after 48 hrs by SRB assay; format: functional; details: SF-295, 48 h
[17] = tested on: SF-539; assay: Growth inhibition of human SF539 cells after 48 hrs by SRB assay; format: functional; details: SF-539, 48 h
[18] = tested on: SK-MEL-2; assay: Growth inhibition of human SK-MEL-2 cells after 48 hrs by SRB assay; format: functional; details: SK-MEL-2, 48 h
[19] = tested on: K562; assay: Cell cycle arrest in human K562 cells assessed as accumulation at G0/G1 phase at 1.2 uM after 24 hrs using propidium iodide staining by flow cytometry; format: functional, cell-based
[20] = tested on: K562; assay: Cell cycle arrest in human K562 cells assessed as decrease in accumulation at S phase at 1.2 uM after 24 hrs using propidium iodide staining by flow cytometry; format: functional, cell-based
[21] = tested on: K562; assay: Cell cycle arrest in human K562 cells assessed as decrease in accumulation at G2/M phase at 1.2 uM after 24 hrs using propidium iodide staining by flow cytometry; format: functional, cell-based
[22] = tested on: K562; assay: Decrease in total phosphorylated retinoblastoma protein level in human K562 cells at 14 uM after 24 hrs by flow cytometry; format: functional, cell-based
[23] = read-out: LC50 (the source's name)

SMILES	GI50 [2] [µM]	GI50 [3] [µM]	GI50 [4] [µM]	GI50 [5] [µM]	GI50 [6] [µM]	GI50 [7] [µM]	GI50 [8] [µM]	GI50 [9] [µM]	GI50 [10] [µM]	GI50 [11] [µM]	GI50 [16] [µM]	GI50 [17] [µM]	other results
CCCCOc1ccc(NC(=O)n2nc(N)c3ccccc32)cc1	20.8	19.4	15.7	14.7	15.2	29.2	30.7	20	25	19.1	21.7	17.8	GI50 [1]: 0.213 µM; LC50 [1]: > 100 µM; TGI [1]: 17.5 µM; Activity [12]: Active; Activity [13]: Active; Activity [14]: Active; Activity [15]: Active
Nc1nn(C(=O)Nc2ccc(Cc3ccccc3)cc2)c2ccccc12	13.7	16.8	0.408	19.2	2.22	10	10.7	31.3	1.02	2.82	0.53	0.495	TGI [4]: 13 µM; CC50 [4, 23]: 84.6 µM; GI50 [18]: 36.4 µM; TGI [6]: 8.64 µM; CC50 [6, 23]: 34.3 µM; TGI [10]: 28.3 µM; CC50 [10, 23]: > 100 µM; TGI [11]: > 100 µM; CC50 [11, 23]: > 100 µM; Activity [19]: Active; Activity [20]: Active; Activity [21]: Active; Activity [22]: Active; TGI [16]: > 100 µM; CC50 [16, 23]: > 100 µM; TGI [17]: 5.36 µM; CC50 [17, 23]: > 100 µM
